Positions of bridges follow the written chain, without caps; N, C: chain ends. Residues, ends and D or L forms follow the SMILES beside them. No end group written: not given here.
Assays:
[1] = system: HIV-1 IIIB (subtype B, X4); type: cell-based; details: for IC50: IIIB (subtype B, X4)
Experimental: (§1) Briefly, 1×10^5/mL MT-2 or M7 cells were infected with different HIV-1 viruses at 100 TCID50 (50% tissue culture infective dose) in the presence or absence of peptides at graded concentrations overnight. Then the culture supernatants were replaced with equal volume of fresh medium. On the fourth day post-infection, supernatants were collected and mixed with equal volume of 5% Triton X-100. […] The IC50 values were calculated with CalcuSyn software [35–36], and inhibition curves of best fit were generated with GraphPad Prism.

[2] = system: HIV-1 Bal (subtype B, R5); type: cell-based; details: for IC50: Bal (subtype B, R5)
Experimental: as §1

gp41 NHR peptide N36 = molecular target: T1, gp41 NHR peptide N36 (Human immunodeficiency virus type 1 group M subtype B, UniProt P04578); test: Thermostability of 6-HB formed with N36, by CD; type: binding, HIV-1; details: CD at 222 nm, 20 to 98 °C at 1.2 °C/min, 10 μM peptide in PBS
T1 construct: purchased KareBay Biochem, Inc; host or cells: solid-phase chemical synthesis
Experimental: CD spectroscopy was conducted as previously described. Briefly, a CHR peptide was incubated with NHR peptide N36 at concentration of 10 μM at 37 °C for 30 min. The separated C-peptides were also measured. The CD spectra were measured on a Jasco spectropolarimeter (model J-815; Jasco, Inc., Easton, MD, USA), using a 1-nm bandwidth with a 1-nm step resolution from 195 to 260 nm at room temperature. The spectra were corrected by subtraction of PBS. The α-helical content was calculated from the CD signal by dividing the mean residue ellipticity [θ] at 222 nm by the value expected for 100% helix formation (-33,000 deg·cm^2·dmol^-1). The thermal denaturation experiment was performed by monitoring the changes in ellipticity [θ] at 222 nm at increasing temperature from 20 to 98 °C at a rate of 1.2 °C/min; data were acquired at a 1-nm bandwidth at 222 nm at a frequency of 0.25 Hz. The melting curve was smoothed, and the midpoint of the thermal unfolding transition (Tm) value was taken as the maximum of the derivative d[θ] 222/dt. Tm value was detected at a peptide concentration of 10 μM in PBS buffer.

[3] = molecular target: T2, 6-HB formation between N36 and C34 (Human immunodeficiency virus type 1 group M subtype B, UniProt P04578); test: Inhibition of 6-HB formation, sandwich ELISA; type: biochemical, HIV-1; details: N36 and C34 1 μM each, triplicate
T2 construct: purchased KareBay Biochem, Inc; host or cells: solid-phase chemical synthesis
Experimental: The inhibitory activity of peptides on 6-HB formation was measured by the sandwich ELISA method, as previously described. Briefly, a 96-well polystyrene plate (Costar, Corning Inc., Corning, NY) was coated with rabbit anti-gp41 (NY-364) (2 μg/mL in 0.1 M Tris, pH 8.8). […] The mixture was added to the NY-364-coated plate, followed by incubation at room temperature for 60 min and washed three times with a washing buffer (PBS containing 0.1% Tween 20). The monoclonal antibody NC-1(1 μg/mL) was added to the plate and incubated at room temperature for 60 min, followed by washing three times. Rabbit anti-mouse IgG-HRP (Sigma) (1:3000 diluted) was added to each well and incubated at 37 °C for 1 h. The substrate 3, 3’, 5, 5’-tetramethylbenzidine (TMB; Sigma) was then added sequentially. Absorbance at 450 nm was measured using an ELISA reader (Ultra 384; Tecan, Research Triangle Park, NC). The percent inhibition by the peptides and the IC50 were calculated, as previously described.

rhesus monkey IgG = test: ELISA binding to rhesus monkey IgG; details: ELISA on peptide-coated plate; one site specific binding fit; ± SE, three replicates per point; read-out: Estimated Kd of binding to rhesus monkey IgG
Experimental: Next, different concentrations of human or rhesus monkey IgG were added to the peptide-coated plate and incubated at 37 °C for 1 h. Rabbit anti-human IgG-HRP (1:3000 diluted) was added to each well and incubated at 37 °C for another 1 h. Afterwards, the bound IgG-HRP was detected by addition of the HRP substrate TMB. The reaction was terminated by addition of 1 M H2SO4 50 μL. Absorbance at 450 nm was measured using an ELISA reader (Ultra 384; Tecan, Research Triangle Park, NC).
The data was fitted to the “one site – specific binding” using GraphPad Prism. The standard error (SE) is given for a sample size of three replicates per data point.

[4] = rhesus monkeys, 10 mg/kg i.v. daily for one month, within two months; indirect ELISA
Experimental: After incubation at 4 °C for 2 h and washes with PBS-T for three times, we added the serially 10-fold diluted plasma of the PBS- or peptide-treated rhesus monkeys. Goat Anti-Monkey IgG H&L (HRP) (Abcam) were incubated for 1 h at 37 °C and washed for five times.

HIV-1 JR-CSF = test: Inhibitors alone or in combination against HIV-1 JR-CSF; type: cell-based
Experimental: The samples were serially diluted and tested for their inhibitory activity on HIV-1 infection as described above. The data were analyzed for synergistic effect by calculating the combination index (CI) with the CalcuSyn software. CI values of <0.95 and >1.05 indicate synergy and antagonism, respectively. CI <0.1, 0.1–0.3, 0.3–0.7, 0.7–0.85, and 0.85–0.90 indicate very strong synergism, strong synergism, synergism, moderate synergism, and slight synergism, respectively. Fold of dose reduction was calculated with the ratio of concentrations of inhibitor testing alone and in combination.

HIV-1 IIIB = test: Ex vivo anti-HIV-1 activity of sera from treated mice; type: in vivo; details: BALB/c mice, i.p., N6 3.2 mg/kg and/or IBP-CP24 1.8 mg/kg
Experimental: The ex vivo anti-HIV-1 activity of a peptide or a bNAb or their combination in serum samples from mice treated with the peptide or bNAb was detected as described previously. […] Sera were collected from these mice at 2 and 8 h post-injection and tested for their inhibitory activity against HIV-1IIIB infection as described above. The dilution fold of the serum causing 50% inhibition (DF-IC50) was calculated.

[5] = rhesus monkeys; for t1/2: plasma, 10 mg/kg i.v., active peptide concentration estimated from ex vivo anti-HIV-1 IIIB activity (DF-IC50) and in vitro IC50, MODFIT; for AUC(0-t) / Cmax / MRT 0-inf_obs / Tmax: concentration estimated from ex vivo anti-HIV-1 activity

T1 sequence (P04578 546-581): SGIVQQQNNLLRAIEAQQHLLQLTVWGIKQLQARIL
T2 sequence (P04578 546-581): as above

| Compound | fold more potent than CP24 against HIV-1 IIIB [1] | IC50 [1] [nM] | fold more potent than CP24 against HIV-1 Bal [2] [fold] | IC50 [2] [nM] | Tm of the 6-HB formed with N36 (gp41 NHR peptide N36) [°C] | inhibition of 6-HB formation between N36 and C34 [3] | Kd (rhesus monkey IgG) [nM] | peptide-specific antibodies in plasma [4] | Dose reduction (HIV-1 JR-CSF; mixture 10E8 / IBP-CP24, HIV-1 JR-CSF) [fold] | Dose reduction (HIV-1 JR-CSF; mixture C34 / IBP-CP24, HIV-1 JR-CSF) [fold] | Dose reduction (HIV-1 JR-CSF; mixture VRC07 / IBP-CP24, HIV-1 JR-CSF) [fold] | DF-IC50 (dilution fold of serum causing 50% inhibition of HIV-1 IIIB infection) (HIV-1 IIIB; sera 2 h post-injection) | DF-IC50 (dilution fold of serum causing 50% inhibition of HIV-1 IIIB infection) (HIV-1 IIIB; sera 8 h post-injection) | t1/2 [5] [h] | AUC(0-t) [5] [µg·h/mL] | Cmax [5] [µg/mL] | MRT 0-inf_obs [5] [h] | Tmax [5] [h] |
| --- | --- | --- | --- | --- | --- | --- | --- | --- | --- | --- | --- | --- | --- | --- | --- | --- | --- | --- |
| CC[C@H](C)[C@H](NC(=O)[C@H](CC(C)C)NC(=O)[C@H](CCC(=O)O)NC(=O)[C@H](CCC(=O)O)NC(=O)[C@@H](NC(=O)[C@H](CCCCN)NC(=O)[C@H](CCCCN)NC(=O)[C@@H](NC(=O)[C@H](Cc1ccc(O)cc1)NC(=O)[C@H](CCC(=O)O)NC(=O)[C@H](CCC(=O)O)NC(=O)[C@@H](NC(=O)[C@H](CCCCN)NC(=O)[C@H](CCCCN)NC(=O)[C@H](CC(=O)O)NC(=O)[C@H](Cc1c[nH]c2ccccc12)NC(=O)[C@H](CCC(=O)O)NC(=O)[C@H](CCC(=O)O)NC(=O)[C@H](Cc1c[nH]c2ccccc12)NC(=O)[C@@H](NC(=O)[C@H](CCSC)NC(=O)[C@@H](NC(=O)[C@@H]1CSSC[C@H](NC(=O)[C@@H](N)CC(=O)O)C(=O)N[C@@H](C)C(=O)N[C@@H](Cc2c[nH]c3ccccc23)C(=O)N[C@@H](Cc2c[nH]cn2)C(=O)N[C@@H](CC(C)C)C(=O)NCC(=O)N[C@@H](CCC(=O)O)C(=O)N[C@@H](CC(C)C)C(=O)N[C@@H](C(C)C)C(=O)N[C@@H](Cc2c[nH]c3ccccc23)C(=O)N1)[C@@H](C)O)[C@@H](C)O)[C@@H](C)CC)[C@@H](C)O)[C@@H](C)CC)C(=O)N[C@@H](CCCCN)C(=O)N[C@@H](CCCCN)C(=O)N[C@@H](CO)C(=O)O [IBP-CP24] (H-DCAWHLGELVWCTMTWEEWDKKIEEYTKKIEELIKKS-OH; disulfide 2-12; N-terminus and C-terminus assumed) | about 2.3 fold | 5.9 | ~2.9 | 2.57 | 85.25 | much stronger inhibition on 6-HB formation than CP24 itself | 557 | no significant detectable antibodies | 9.0 | 0.4 | 4.4 | 35 | 16 | 44.81 | 3610.65 | 76.23 | 61.39 | 4 |
| MTWEEWDKKIEEYTKKIEELIKKS [CP24, reference compound] | – | 19.5 | – | 10.1 | 78.69 | – | – | no significant detectable antibodies | – | – | – | – | – | 1.37 | 237.88 | 77.82 | 3.17 | 2 |
